How the values were obtained:
Shigella flexneri = test: MIC against clinical isolates; type: cell-based; settings: unit assumed
Procedure: (§1) The minimum inhibitory concentrations (MIC) was determined by the plate method disclosed in "Chemotherapy" (Japan), Vol. 16, (1968), pages 98 - 99. The culture medium used was a Heart infusion agar (pH 7.4). The number of the cells per plate used in the inoculum as 10^4 (10^6 cells/ml).
(§2) MIC was determined in the same manner as in the preceding paragraph (1).

Shigella sonnei = test: MIC against clinical isolates; type: cell-based; settings: unit assumed
Procedure: as §1, §2

Proteus mirabilis = test: MIC against clinical isolates; type: cell-based; settings: clinical isolate, unit assumed
Proteus vulgaris = test: MIC against clinical isolates; type: cell-based; settings: clinical isolate, unit assumed
Salmonella typhi-murium = test: MIC against clinical isolates; type: cell-based; settings: unit assumed
Klebsiella pneumoniae [1] = test: MIC against standard strain, plate method; type: cell-based; settings: unit assumed
Outline: (§3)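 Minimum inhibitory concentrations were determined on agar plates of heart infusion medium (pH 7.4) inoculated with 10^4 cells per plate.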

Proteus vulgaris 3027 = test: MIC against standard strain, plate method; type: cell-based; settings: Proteus vulgaris 3027, standard strain; unit assumed
Outline: as §3

Escherichia coli NIHJ = test: MIC against standard strain, plate method; type: cell-based; settings: unit assumed
Outline: as §3

[2] = system: Staphylococcus aureus 209p; test: MIC against standard strain, plate method; type: cell-based; settings: unit assumed
Outline: as §3

Proteus morganii = test: MIC against clinical isolates; type: cell-based; settings: clinical isolate, unit assumed
β-lactamase = test: Resistant activity against β-lactamase, iodometric assay; type: biochemical, Pseudomonas aeruginosa GN 238; settings: relative to Potassium Penicillin G = 100
Procedure: (3) Resistant activity against β-lactamase, Pseudomonas aergionan GN 238:
The resistant activity of each compound against β-lactamase was measured in the manner described below.
β-Lactamase was prepared from Pseudomonas aeruginosa GN 238. This microorganism was cultured in 100 ml of a medium containing 2 g of yeast extract, 10 g of polypeptone, 2 g of glucose, 7 g of disodium hydrogen phosphate, 2 g of potassium dihydrogen phosphate, 1.2 g of ammonium sulfate and 0.4 g of magnesium sulfate, per liter, in a 500-ml Erlenmeyer flask for 6 hrs. at 37° C with shaking. The resulting cells were collected by centrifugation (5,000 r.p.m. × 10 min.), washed three times with 0.1 M phosphate buffer (pH 7.0). Subsequently, the cells were subjected to sonication (20 KHz, 20 min.) and then centrifuged at 15,000 r.p.m. for 60 min. By using the supernatant of enzyme fluid, the resistance of each compound against β-lactamase was determined by the iodometric assay method. Each numeral shown in Table 7 is a relative activity value calculated by assuming as 100 the activity of the control Potassium Penicillin G.

Staphylococcus aureus = test: MIC against clinical isolates; type: cell-based; settings: unit assumed
Pseudomonas aeruginosa = test: MIC against clinical isolates; type: cell-based; settings: unit assumed
Salmonella typhi = test: MIC against clinical isolates; type: cell-based; settings: unit assumed
Escherichia coli = test: MIC against clinical isolates; type: cell-based; settings: unit assumed
Klebsiella pneumoniae [3] = test: MIC against clinical isolates; type: cell-based; settings: unit assumed
Proteus rettgeri = test: MIC against clinical isolates; type: cell-based; settings: clinical isolate, unit assumed
[4] = system: Pseudomonas aeruginosa I.F.O.; test: MIC against standard strain, plate method; type: cell-based; settings: unit assumed
Outline: as §3

[5] = clinical isolate GN (number not given; Table 5-3)

CCN1CCN(C(=O)N[C@@H](C(=O)N[C@@H]2C(=O)N3[C@@H]2SC(C)(C)[C@@H]3C(=O)O)c2ccccc2)C(=O)C1=O [compound 36]
6.25 µg/mL: MIC (Salmonella typhi-murium; clinical isolate SL 858)
< 0.4 µg/mL: MIC (Proteus mirabilis) | MIC (Proteus vulgaris) | MIC (Proteus morganii)
50 µg/mL: MIC (Shigella sonnei; clinical isolate JS 11232) | MIC (Pseudomonas aeruginosa; clinical isolate S-1) | MIC (Pseudomonas aeruginosa; clinical isolate S-4)
0.79 µg/mL: MIC (Staphylococcus aureus; clinical isolate MS 8619)
< 1.57 µg/mL: MIC (Klebsiella pneumoniae [1]) | MIC (Proteus vulgaris 3027) | MIC (Escherichia coli NIHJ) | MIC [2]
14%: Relative activity (β-lactamase)
100 µg/mL: MIC (Shigella flexneri; clinical isolate JS 11215) | MIC (Escherichia coli; clinical isolate GN 3465) | MIC (Klebsiella pneumoniae [3]; clinical isolate GN 4081) | MIC (Klebsiella pneumoniae [3]; clinical isolate GN 4117)
12.5 µg/mL: MIC (Staphylococcus aureus; clinical isolate F-1) | MIC (Pseudomonas aeruginosa; clinical isolate GN 2987) | MIC (Pseudomonas aeruginosa; [5]) | MIC (Pseudomonas aeruginosa; clinical isolate S-2) | MIC (Klebsiella pneumoniae [3]; clinical isolate GN 3850) | MIC (Proteus rettgeri)
1.57 µg/mL: MIC (Salmonella typhi; clinical isolate SL 819) | MIC (Salmonella typhi; clinical isolate SL 2169)
3.13 µg/mL: MIC (Shigella flexneri; clinical isolate JS 11839) | MIC (Shigella sonnei; clinical isolate JS 11755) | MIC (Staphylococcus aureus; clinical isolate F-2) | MIC (Staphylococcus aureus; clinical isolate MS 8588) | MIC (Staphylococcus aureus; clinical isolate MS 8596) | MIC (Staphylococcus aureus; clinical isolate MS 8684) | MIC (Pseudomonas aeruginosa; clinical isolate GN 221) | MIC (Escherichia coli; clinical isolate GN 3452) | MIC (Escherichia coli; clinical isolate GN 3481) | MIC (Escherichia coli; clinical isolate K-1) | MIC (Escherichia coli; clinical isolate K-2)
25 µg/mL: MIC (Pseudomonas aeruginosa; clinical isolate GN 1035) | MIC (Pseudomonas aeruginosa; clinical isolate GN 2565) | MIC (Pseudomonas aeruginosa; clinical isolate S-3)
> 200 µg/mL: MIC (Salmonella typhi-murium; clinical isolate SL 2136) | MIC (Staphylococcus aureus; clinical isolate F-5) | MIC (Escherichia coli; clinical isolate GN 3611) | MIC (Escherichia coli; clinical isolate K-3)

CCCN1CCN(C(=O)N[C@@H](C(=O)N[C@@H]2C(=O)N3[C@@H]2SC(C)(C)[C@@H]3C(=O)O)c2ccccc2)C(=O)C1=O (single isomer, unassigned) [compound 38]
15%: Relative activity (β-lactamase)
0.4 µg/mL: MIC (Proteus vulgaris 3027) | MIC [2]
6.25 µg/mL: MIC [4] | MIC (Staphylococcus aureus; clinical isolate F-1) | MIC (Staphylococcus aureus; clinical isolate F-4) | MIC (Staphylococcus aureus; clinical isolate MS 8713) | MIC (Pseudomonas aeruginosa; clinical isolate GN 221) | MIC (Pseudomonas aeruginosa; clinical isolate GN 383) | MIC (Pseudomonas aeruginosa; clinical isolate GN 2987) | MIC (Pseudomonas aeruginosa; [5]) | MIC (Klebsiella pneumoniae [3]; clinical isolate GN 3850)
25 µg/mL: MIC (Shigella flexneri; clinical isolate JS 11215)
200 µg/mL: MIC (Salmonella typhi-murium; clinical isolate SL 2136)
3.13 µg/mL: MIC (Salmonella typhi-murium; clinical isolate SL 858)
1.57 µg/mL: MIC (Salmonella typhi; clinical isolate SL 819)
0.79 µg/mL: MIC (Staphylococcus aureus; clinical isolate F-3) | MIC (Staphylococcus aureus; clinical isolate MS 8619) | MIC (Salmonella typhi; clinical isolate SL 2169) | MIC (Escherichia coli; clinical isolate GN 3435) | MIC (Escherichia coli; clinical isolate K-4)
< 0.1 µg/mL: MIC (Escherichia coli NIHJ)
< 0.4 µg/mL: MIC (Proteus mirabilis) | MIC (Proteus vulgaris) | MIC (Proteus morganii)
50 µg/mL: MIC (Shigella sonnei; clinical isolate JS 11232) | MIC (Escherichia coli; clinical isolate GN 3465) | MIC (Klebsiella pneumoniae [3]; clinical isolate GN 4081) | MIC (Klebsiella pneumoniae [3]; clinical isolate GN 4117)
> 200 µg/mL: MIC (Staphylococcus aureus; clinical isolate F-5) | MIC (Escherichia coli; clinical isolate GN 3611) | MIC (Escherichia coli; clinical isolate K-3)
12.5 µg/mL: MIC (Pseudomonas aeruginosa; clinical isolate GN 1035) | MIC (Pseudomonas aeruginosa; clinical isolate GN 2565) | MIC (Pseudomonas aeruginosa; clinical isolate S-1) | MIC (Pseudomonas aeruginosa; clinical isolate S-2) | MIC (Pseudomonas aeruginosa; clinical isolate S-3) | MIC (Pseudomonas aeruginosa; clinical isolate S-4) | MIC (Proteus rettgeri)

CN1CCN(C(=O)N[C@@H](C(=O)N[C@@H]2C(=O)N3[C@@H]2SC(C)(C)[C@@H]3C(=O)O)c2ccccc2)C(=O)C1=O (single isomer, unassigned) [compound 37]
1.57 µg/mL: MIC (Staphylococcus aureus; clinical isolate F-2)
> 200 µg/mL: MIC (Shigella flexneri; clinical isolate JS 11215) | MIC (Salmonella typhi-murium; clinical isolate SL 2136) | MIC (Staphylococcus aureus; clinical isolate F-5) | MIC (Escherichia coli; clinical isolate GN 3611) | MIC (Escherichia coli; clinical isolate K-3)
15%: Relative activity (β-lactamase)
12.5 µg/mL: MIC (Salmonella typhi-murium; clinical isolate SL 858)
200 µg/mL: MIC (Pseudomonas aeruginosa; clinical isolate S-1) | MIC (Escherichia coli; clinical isolate GN 3465) | MIC (Klebsiella pneumoniae [3]; clinical isolate GN 4081)
100 µg/mL: MIC (Shigella sonnei; clinical isolate JS 11232) | MIC (Pseudomonas aeruginosa; clinical isolate S-4) | MIC (Klebsiella pneumoniae [3]; clinical isolate GN 4117)
6.25 µg/mL: MIC (Salmonella typhi; clinical isolate SL 819)
< 1.57 µg/mL: MIC (Proteus vulgaris 3027) | MIC (Escherichia coli NIHJ) | MIC [2]
< 0.4 µg/mL: MIC (Proteus vulgaris)
25 µg/mL: MIC (Pseudomonas aeruginosa; clinical isolate GN 383) | MIC (Pseudomonas aeruginosa; clinical isolate GN 2565) | MIC (Pseudomonas aeruginosa; clinical isolate GN 2987) | MIC (Pseudomonas aeruginosa; clinical isolate S-2) | MIC (Klebsiella pneumoniae [3]; clinical isolate GN 3850) | MIC (Proteus rettgeri)
50 µg/mL: MIC (Pseudomonas aeruginosa; clinical isolate GN 1035) | MIC (Pseudomonas aeruginosa; [5]) | MIC (Pseudomonas aeruginosa; clinical isolate S-3)
0.79 µg/mL: MIC (Proteus mirabilis) | MIC (Proteus morganii) | MIC (Staphylococcus aureus; clinical isolate MS 8619)
3.13 µg/mL: MIC (Salmonella typhi; clinical isolate SL 2169)

Source: patent US4110327A, “2,3 Diketo-piperazinocarbonylamino alkanoic acids and derivatives” (Toyama Chemical Co., Ltd., priority 1974, dated 1978)
